From the NIST ThermoML archive (doi:10.1016/j.jct.2008.07.010)
Numbers after ± are expanded uncertainties.

Test: xn = mol fraction of the nth substance listed
Conditions: 101 kPa, Liquid; for viscosity: Capillary tube (Ostwald / Ubbelohde) method; for speed of sound: Sing-around technique in a fixed-path interferometer; for mass density: Vibrating tube method

CC(C)CCCC(C)CCCC(C)CCCCC(C)CCCC(C)CCCC(C)C (stereo not given) [2,6,10,15,19,23-hexamethyltetracosane] + CC(C)O
Conditions	mass density, 298.15 K [kg/m3]	mass density, 303.15 K [kg/m3]	mass density, 308.15 K [kg/m3]	speed of sound, 298.15 K [m/s]	speed of sound, 303.15 K [m/s]	speed of sound, 308.15 K [m/s]	viscosity, 298.15 K [mPa·s]	viscosity, 303.15 K [mPa·s]	viscosity, 308.15 K [mPa·s]
x2 = 0	805.122 ± 0.24	801.912 ± 0.24	798.709 ± 0.24	1381.9 ± 1.3	1364.1 ± 1.3	1346.5 ± 1.3	28.26 ± 0.31	22.09 ± 0.26	17.77 ± 0.21
x2 = 0.0621	804.504 ± 0.23	801.238 ± 0.23	797.982 ± 0.23	1377.4 ± 1.2	1359.1 ± 1.2	1341.4 ± 1.2	24.12 ± 0.28	18.75 ± 0.21	15.29 ± 0.16
x2 = 0.0949	804.196 ± 0.23	800.909 ± 0.23	797.625 ± 0.23	1374.9 ± 1.2	1356.8 ± 1.2	1338.9 ± 1.2	22.69 ± 0.25	17.69 ± 0.2	14.48 ± 0.16
x2 = 0.1438	803.771 ± 0.22	800.451 ± 0.22	797.133 ± 0.22	1371.4 ± 1.2	1353.3 ± 1.2	1335.5 ± 1.2	21.22 ± 0.23	16.63 ± 0.18	13.66 ± 0.14
x2 = 0.218	803.155 ± 0.21	799.796 ± 0.21	796.425 ± 0.21	1366 ± 1.2	1347.9 ± 1.2	1330 ± 1.2	19.65 ± 0.21	15.45 ± 0.17	12.74 ± 0.13
x2 = 0.2865	802.572 ± 0.2	799.185 ± 0.2	795.767 ± 0.2	1360.2 ± 1.2	1342.2 ± 1.1	1324.2 ± 1.1	18.5 ± 0.19	14.56 ± 0.16	12.03 ± 0.13
x2 = 0.3119	802.336 ± 0.2	798.955 ± 0.2	795.521 ± 0.2	1358.2 ± 1.1	1340 ± 1.1	1321.9 ± 1.1	18.11 ± 0.19	14.24 ± 0.15	11.76 ± 0.12
x2 = 0.4022	801.467 ± 0.19	798.03 ± 0.19	794.563 ± 0.19	1349.5 ± 1.1	1331.3 ± 1.1	1313.3 ± 1.1	16.68 ± 0.17	13.05 ± 0.14	10.84 ± 0.11
x2 = 0.5142	800.109 ± 0.18	796.619 ± 0.18	793.069 ± 0.18	1336.4 ± 1.1	1318.1 ± 1.1	1299.9 ± 1.1	14.34 ± 0.13	11.37 ± 0.12	9.424 ± 0.1
x2 = 0.5952	798.83 ± 0.17	795.275 ± 0.17	791.676 ± 0.18	1324.5 ± 1	1306.4 ± 1	1288.1 ± 1	11.77 ± 0.12	9.455 ± 0.095	7.904 ± 0.078

CCCCCCCCCCCCCCCC [hexadecane] + CC(C)O
Conditions	mass density, 298.15 K [kg/m3]	mass density, 303.15 K [kg/m3]	mass density, 308.15 K [kg/m3]	speed of sound, 298.15 K [m/s]	speed of sound, 303.15 K [m/s]	speed of sound, 308.15 K [m/s]	viscosity, 298.15 K [mPa·s]	viscosity, 303.15 K [mPa·s]	viscosity, 308.15 K [mPa·s]
x2 = 0	770.456 ± 0.24	766.981 ± 0.24	763.52 ± 0.24	1338.6 ± 1.3	1320 ± 1.3	1301.7 ± 1.3	3.041 ± 0.026	2.706 ± 0.024	2.409 ± 0.022
x2 = 0.0441	770.067 ± 0.23	766.622 ± 0.23	763.106 ± 0.24	1334.2 ± 1.2	1315.5 ± 1.2	1297.1 ± 1.2	2.867 ± 0.026	2.521 ± 0.023	2.231 ± 0.02
x2 = 0.1285	769.792 ± 0.23	766.198 ± 0.23	762.606 ± 0.23	1325.5 ± 1.2	1306.8 ± 1.2	1288.2 ± 1.2	2.654 ± 0.024	2.312 ± 0.021	2.034 ± 0.019
x2 = 0.1617	769.728 ± 0.22	766.093 ± 0.22	762.479 ± 0.22	1321.8 ± 1.2	1302.9 ± 1.2	1284.7 ± 1.2	2.601 ± 0.023	2.264 ± 0.021	1.989 ± 0.018
x2 = 0.2294	769.59 ± 0.21	765.938 ± 0.22	762.287 ± 0.22	1314.8 ± 1.2	1295.9 ± 1.2	1277.2 ± 1.2	2.531 ± 0.022	2.214 ± 0.02	1.944 ± 0.018
x2 = 0.2707	769.56 ± 0.21	765.896 ± 0.21	762.206 ± 0.21	1310.1 ± 1.1	1291.2 ± 1.1	1272.5 ± 1.1	2.504 ± 0.022	2.199 ± 0.02	1.928 ± 0.018
x2 = 0.332	769.565 ± 0.2	765.88 ± 0.21	762.156 ± 0.21	1303.1 ± 1.1	1284.1 ± 1.1	1265.6 ± 1.1	2.47 ± 0.021	2.176 ± 0.019	1.92 ± 0.018
x2 = 0.414	769.697 ± 0.2	765.976 ± 0.2	762.174 ± 0.2	1293.5 ± 1.1	1274.5 ± 1.1	1255.6 ± 1.1	2.43 ± 0.02	2.153 ± 0.019	1.904 ± 0.017
x2 = 0.5064	770.039 ± 0.19	766.23 ± 0.19	762.374 ± 0.19	1280.3 ± 1.1	1261.3 ± 1.1	1242.7 ± 1.1	2.36 ± 0.019	2.08 ± 0.018	1.843 ± 0.017
x2 = 0.6119	770.701 ± 0.18	766.793 ± 0.18	762.751 ± 0.18	1263.2 ± 1	1244.4 ± 1	1225.5 ± 1	2.242 ± 0.019	1.95 ± 0.017	1.719 ± 0.016
x2 = 0.7008	771.594 ± 0.17	767.564 ± 0.17	763.551 ± 0.17	1245.9 ± 0.98	1227.1 ± 1	1208.2 ± 1	2.123 ± 0.019	1.821 ± 0.017	1.599 ± 0.015
x2 = 0.762	772.47 ± 0.17	768.35 ± 0.17	764.298 ± 0.17	1231.6 ± 0.95	1212.9 ± 1	1194 ± 1	2.051 ± 0.019	1.723 ± 0.016	1.51 ± 0.014
x2 = 0.8419	774.082 ± 0.16	769.888 ± 0.16	765.761 ± 0.17	1208.4 ± 0.91	1189.9 ± 0.9	1171.2 ± 0.9	1.974 ± 0.02	1.628 ± 0.016	1.418 ± 0.013
x2 = 0.9188	776.284 ± 0.16	772.263 ± 0.16	768.061 ± 0.16	1180 ± 0.89	1161.6 ± 0.9	1143.6 ± 0.9	1.96 ± 0.02	1.608 ± 0.016	1.419 ± 0.013
x2 = 0.9498	777.915 ± 0.16	773.694 ± 0.16	769.382 ± 0.16	1166.2 ± 0.88	1148.3 ± 0.9	1130.3 ± 0.9	1.983 ± 0.019	1.647 ± 0.016	1.454 ± 0.013
